Reference: ChEMBL document CHEMBL1151122, “Diterpenoids from the roots of Salvia hypargeia” (1988)
Values after ≈ are worked out from the molar mass of the structure shown. Active and inactive are the calls of the source. The rule behind the calls is not given here.

Experiments:
Pseudomonas aeruginosa [1] = assay: Antibacterial activity against Pseudomonas aeruginosa ATCC 1539; type: functional, organism-based
Klebsiella pneumoniae [2] = assay: Antibacterial activity against Klebsiella pneumoniae UC 57; type: functional, organism-based
Bacillus subtilis [3] = assay: Antibacterial activity against Bacillus subtilis ATCC 6633; type: functional, organism-based
[4] = system: Staphylococcus epidermidis; assay: Antibacterial activity against Staphylococcus epidermidis ATCC 12228; type: functional, organism-based
Staphylococcus aureus [5] = assay: Antibacterial activity against Staphylococcus aureus ATCC 6538; type: functional, organism-based
Pseudomonas aeruginosa [6] = assay: Antibacterial activity against Pseudomonas aeruginosa ATCC 1539 by disk diffusion method; type: functional
[7] = system: Staphylococcus epidermidis; assay: Antibacterial activity against Staphylococcus epidermidis ATCC 12228 by disk diffusion method; type: functional
Staphylococcus aureus [8] = assay: Antibacterial activity against Staphylococcus aureus ATCC 6538 by disk diffusion method; type: functional
Bacillus subtilis [9] = assay: Antibacterial activity against Bacillus subtilis ATCC 6633 by disk diffusion method; type: functional
Staphylococcus aureus [10] = assay: Antibacterial activity against Staphylococcus aureus ATCC 6538 by tube dilution method; type: functional
Klebsiella pneumoniae [11] = assay: Antibacterial activity against Klebsiella pneumoniae UC 57 by tube dilution method; type: functional
Klebsiella pneumoniae [12] = assay: Antibacterial activity against Klebsiella pneumoniae UC 57 by disk diffusion method; type: functional
Bacillus subtilis [13] = assay: Antibacterial activity against Bacillus subtilis ATCC 6633 by tube dilution method; type: functional
[14] = system: Mycobacterium tuberculosis; assay: Antitubercular activity against Mycobacterium tuberculosis H37Rv at 250 ug/ml; type: functional, organism-based
[15] = system: Staphylococcus epidermidis; assay: Antibacterial activity against Staphylococcus epidermidis ATCC 12228 by tube dilution method; type: functional
Pseudomonas aeruginosa [16] = assay: Antibacterial activity against Pseudomonas aeruginosa ATCC 1539 by tube dilution method; type: functional

CC(C)c1ccc2c(c1O)C[C@@H](O)[C@H]1C(C)(C)CCC(=O)[C@]21C
Activity (Pseudomonas aeruginosa [1]): inactive
Activity (Klebsiella pneumoniae [2]): inactive
Activity (Bacillus subtilis [3]): inactive
Activity [4]: inactive
Activity (Staphylococcus aureus [5]): inactive

CC(C)c1cc2c(cc1O)[C@@]1(C)C(=O)CCC(C)(C)[C@@H]1[C@H](O)C2=O [HYPARGENIN A]
inhibition zone (IZ) (Pseudomonas aeruginosa [6]): >7 mm
inhibition zone (IZ) [7]: >7 mm
inhibition zone (IZ) (Staphylococcus aureus [8]): >7 mm
inhibition zone (IZ) (Bacillus subtilis [9]): >7 mm
MIC (Staphylococcus aureus [10]): 15.6 µg/mL (≈ 47.2 µM)
MIC (Klebsiella pneumoniae [11]): 15.6 µg/mL (≈ 47.2 µM)
inhibition zone (IZ) (Klebsiella pneumoniae [12]): >7 mm

CC(C)(O)c1cc2c(cc1O)[C@@]1(C)CCCC(C)(C)[C@@H]1CC2=O [HYPARGENIN B]
inhibition zone (IZ) (Pseudomonas aeruginosa [6]): >7 mm
inhibition zone (IZ) [7]: >7 mm
inhibition zone (IZ) (Staphylococcus aureus [8]): >7 mm
inhibition zone (IZ) (Bacillus subtilis [9]): >7 mm
MIC (Staphylococcus aureus [10]): 125 µg/mL (≈ 395 µM)
MIC (Klebsiella pneumoniae [11]): 125 µg/mL (≈ 395 µM)
inhibition zone (IZ) (Klebsiella pneumoniae [12]): >7 mm

CC(C)c1cc2c(cc1O)[C@@]1(C)CCCC(C)(C)[C@@H]1C(=O)C2=O [HYPARGENIN C]
inhibition zone (IZ) (Pseudomonas aeruginosa [6]): >7 mm
MIC (Bacillus subtilis [13]): 15.6 µg/mL (≈ 49.6 µM)
inhibition zone (IZ) [7]: >7 mm
inhibition zone (IZ) (Staphylococcus aureus [8]): >7 mm
inhibition zone (IZ) (Bacillus subtilis [9]): >7 mm
MIC (Staphylococcus aureus [10]): 125 µg/mL (≈ 398 µM)
inhibition zone (IZ) (Klebsiella pneumoniae [12]): >7 mm

CC(C)c1cc2c(cc1O)[C@@]1(C)CCC(=O)C(C)(C)[C@@H]1C=C2 [HYPARGENIN D]
inhibition zone (IZ) (Pseudomonas aeruginosa [6]): >7 mm
MIC (Bacillus subtilis [13]): 62.5 µg/mL (≈ 209 µM)
inhibition zone (IZ) [7]: >7 mm
inhibition zone (IZ) (Staphylococcus aureus [8]): >7 mm
inhibition zone (IZ) (Bacillus subtilis [9]): >7 mm
inhibition zone (IZ) (Klebsiella pneumoniae [12]): >7 mm

CC(C)C1=C(O)C(=O)C2=C(C=CC3(O)C(C)(C)CCC[C@]23C)C1=O (stereo partly specified) [HYPARGENIN F]
inhibition zone (IZ) (Pseudomonas aeruginosa [6]): >7 mm
Activity [14]: Active
inhibition zone (IZ) [7]: >7 mm
inhibition zone (IZ) (Staphylococcus aureus [8]): >7 mm
MIC [15]: 62.5 µg/mL (≈ 189 µM)
inhibition zone (IZ) (Bacillus subtilis [9]): >7 mm
MIC (Staphylococcus aureus [10]): 125 µg/mL (≈ 378 µM)
inhibition zone (IZ) (Klebsiella pneumoniae [12]): >7 mm
MIC (Pseudomonas aeruginosa [16]): 125 µg/mL (≈ 378 µM)
